Results: patent US10513511B2, “Aqueous suspension formulation comprising 4-(4-(4-(((3R,5R)-5-((1H-1,2,4-triazol-1-yl)methyl)-5-(2,4-difluoro-phenyl)tetrahydrofuran-3-yl)methoxy)-3-methylphenyl) or a pharmaceutically acceptable salt thereof” (PULMOCIDE LIMITED, priority 2015, dated 2019)
In brackets after ≈: the same amount, converted by molar mass.

Legend:
TNFα = test: Serum TNFα in Aspergillus fumigatus infected, immunocompromised, neutropenic mice; assay type: in vivo, A/J mice; settings: for TNFα in serum, % Inhibition / Conc of Biomarkers, TNFα in serum: therapeutic; for Conc of Biomarkers, TNFα in serum: mean ± SEM, N = 6
Protocol: (§1) Aspergillus fumigatus (ATCC 13073 [strain: NIH 5233], American Type Culture Collection, Manassas, Va., USA) was grown on Malt agar (Nissui Pharmaceutical, Tokyo, Japan) plates for 6-7 days at RT (24±1° C.). Spores were aseptically dislodged from the agar plates and suspended in sterile distilled water with 0.05% Tween 80 and 0.1% agar. On the day of infection, spore counts were assessed by haemocytometer and the inoculum was adjusted to obtain a concentration of 1.67×10^8 spores mL^−1 of physiological saline. […] On day 0, animals were infected with the spore suspension (30 μL intra-nasally).
(§2) Test substances were administered intra-nasally (35 μL of a suspension (0.0032-10.0 mg/mL of drug substance in physiological saline) once daily, on days 1, 2 and 3 only (thereby representing a therapeutic treatment regimen). For extended prophylactic treatment, test compounds (35 μL of a suspension of 0.0032 or 0.016 mg/mL in physiological saline) were administered intra-nasally once daily for seven days. One group was dosed 30 min before infection on day 0 but not subsequently, while a second group was further dosed on days 1, 2 and 3 after infection. The effects of these treatment paradigms were compared with those obtained when treatment was restricted in other groups to either one day or 30 min before inoculation and then on days 1, 2 and 3 post infection in both cases. In a final group, dosing was limited still further with animals dosed twice, one day and 30 min before infection only.
(§3) Animal body weights were monitored daily and at 6 hr after the last dose of drug was administered on day 3, the animals were anesthetised, the tracheas cannulated and BALF blood and lung tissue were collected. The levels of IL-6 and TNFα in serum were determined using Quantikine® mouse IL-6 or TNF-α ELISA kit (R&D systems, Inc., Minneapolis, Minn., USA) respectively. Aspergillus GM in serum was determination using Platelia GM-EIA kits (Bio-Rad Laboratories, Redmond, Wash., USA). Cut-off index (COI) was calculated by the formula: Cut-off index=OD in sample/OD in cut-off control provided in kit. For tissue fungal load assays, 100 mg of lung tissue was removed aseptically and homogenized in 0.2 mL of 0.1% agar in sterile distilled water. Serially diluted lung homogenates were plated on Malt agar plates (50 μL/plate), and incubated at 24±1° C. for 72 to 96 h. The colonies of A. fumigatus on each plate were counted and the fungal titre presented herein as CFUs per gram of lung tissue.

[1] = system: Cladosporium herbarum NCPF2564; test: Fungus panel screening, CLSI broth microdilution; assay type: cell-based
Protocol: Fungus panel screening was conducted by Eurofins Panlabs Inc. The MIC and MIC50 values of the test articles were determined following the guidelines of the CLSI: broth microdilution methods for yeast (CLSI M27-A2), (CLSI, 2002) and for filamentous fungi (CLSI M38-A), (CLSI, 2008).

[2] = system: Aspergillus fumigatus (ATCC 13073); test: In vivo anti-fungal activity, extended prophylactic dosing in infected immunocompromised neutropenic mice; set-up: species or system A/J mice; settings: for CFU in lung: mean ± SEM, N = 5
Protocol: as §1
as §2, with “For extended prophylactic treatment, test compounds (35 μL of a suspension of 0.0032 or 0.016 mg/mL in physiological saline) were administered intra-nasally once daily for seven days.” left out
as §3

[3] = Days dosed −1 to + 3, 0.64 μg/mL
[4] = Days dosed −1 to + 3, 3.2 μg/mL
[5] = Days dosed −7 to + 3, 0.64 μg/mL
[6] = Days dosed −7 to + 3, 3.2 μg/mL

Cc1cc(N2CCN(c3ccc(C(=O)N[C@H]4CCCC[C@@H]4O)cc3)CC2)ccc1OC[C@@H]1CO[C@@](Cn2cncn2)(c2ccc(F)cc2F)C1 [Compound (Ia), 4-(4-(4-(((3R,5R)-5-((1H-1,2,4-triazol-1-yl)methyl)-5-(2,4-difluorophenyl)tetrahydrofuran-3-yl)methoxy)-3-methylphenyl)piperazin-1-yl)-N-((1S,2S)-2-hydroxycyclohexyl) benzamide]
TNFα in serum, % Inhibition (TNFα; Drug Conc 3.2 μg/mL): 20%
Conc of Biomarkers, TNFα in serum (TNFα; Drug Conc 3.2 μg/mL): 28.1 ± 13.8 pg/mL
TNFα in serum, % Inhibition (TNFα; Drug Conc 16 μg/mL): 38%
Conc of Biomarkers, TNFα in serum (TNFα; Drug Conc 16 μg/mL): 21.8 ± 14.6 pg/mL
TNFα in serum, % Inhibition (TNFα; Drug Conc 80 μg/mL): 87%
Conc of Biomarkers, TNFα in serum (TNFα; Drug Conc 80 μg/mL): 4.7 ± 1.0 pg/mL
ID50 Values for biomarkers indicated, TNFα (TNFα; serum, title: Therapeutic Treatment): 27 µg/mL
MIC50 ([1]; 50% inhibition by visual inspection (CLSI)): 0.016 µg/mL (≈ 0.0233 µM)
MIC ([1]; 100% inhibition by visual inspection (CLSI), read-out: MIC100): 0.016 µg/mL (≈ 0.0233 µM)
CFU in lung, % Inhibition ([2]; Days dosed −1, 0, 3.2 μg/mL): −222%
GM in BALF ([2]; Days dosed −1, 0, 3.2 μg/mL): 4.5 ± 0.63 COI
GM in BALF, % Inhibition ([2]; Days dosed −1, 0, 3.2 μg/mL): −10%
GM in Serum ([2]; Days dosed −1, 0, 3.2 μg/mL): 4.7 ± 0.65 COI
GM in Serum, % Inhibition ([2]; Days dosed −1, 0, 3.2 μg/mL): −21%
CFU in lung ([2]; Days dosed −1, 0, 3.2 μg/mL intranasal): 20.4 ± 15.7 /mg of lung
CFU in lung, % Inhibition [2, 3]: 57%
GM in BALF [2, 3]: 3.9 ± 0.59 COI
GM in BALF, % Inhibition [2, 3]: 5%
GM in Serum [2, 3]: 3.6 ± 0.52 COI
GM in Serum, % Inhibition [2, 3]: 8%
CFU in lung ([2]; Days dosed −1 to + 3, 0.64 μg/mL intranasal): 4.0 ± 5.2 /mg of lung
CFU in lung, % Inhibition [2, 4]: 89%
GM in BALF [2, 4]: 3.4 ± 0.46 COI
GM in BALF, % Inhibition [2, 4]: 17%
GM in Serum [2, 4]: 2.8 ± 0.24 COI
GM in Serum, % Inhibition [2, 4]: 28%
CFU in lung ([2]; Days dosed −1 to + 3, 3.2 μg/mL intranasal): 1.0 ± 1.4 /mg of lung
CFU in lung, % Inhibition ([2]; Days dosed −7 to 0, 3.2 μg/mL): 90%
GM in BALF ([2]; Days dosed −7 to 0, 3.2 μg/mL): 2.9 ± 0.97 COI
GM in BALF, % Inhibition ([2]; Days dosed −7 to 0, 3.2 μg/mL): 29%
GM in Serum ([2]; Days dosed −7 to 0, 3.2 μg/mL): 2.6 ± 0.48 COI
GM in Serum, % Inhibition ([2]; Days dosed −7 to 0, 3.2 μg/mL): 33%
CFU in lung ([2]; Days dosed −7 to 0, 3.2 μg/mL intranasal): 0.9 ± 1.1 /mg of lung
CFU in lung, % Inhibition [2, 5]: 78%
GM in BALF [2, 5]: 3.1 ± 0.85 COI
GM in BALF, % Inhibition [2, 5]: 24%
GM in Serum [2, 5]: 2.6 ± 0.82 COI
GM in Serum, % Inhibition [2, 5]: 33%
CFU in lung ([2]; Days dosed −7 to + 3, 0.64 μg/mL intranasal): 2.0 ± 3.6 /mg of lung
CFU in lung, % Inhibition [2, 6]: 99.6%
GM in BALF [2, 6]: 1.5 ± 0.59 COI
GM in BALF, % Inhibition [2, 6]: 63%
GM in Serum [2, 6]: 1.5 ± 0.85 COI
GM in Serum, % Inhibition [2, 6]: 62%
CFU in lung ([2]; Days dosed −7 to + 3, 3.2 μg/mL intranasal): 0.04 ± 0.08 /mg of lung
